Test: compressibility factor (dimensionless); xn = mol fraction of the nth substance listed
Conditions: Gas, Other PVT measurement

[N-]=[N+]=O [nitrous oxide] + FCF
Conditions	compressibility factor
343.77 K, 195.1 kPa, x1 = 0.4666	0.989
343.77 K, 207.5 kPa, x1 = 0.2266	0.9867
343.77 K, 226.8 kPa, x1 = 0.7567	0.9899
343.77 K, 290.7 kPa, x1 = 0.4666	0.985
343.77 K, 308.8 kPa, x1 = 0.2266	0.9814
343.77 K, 338.1 kPa, x1 = 0.7567	0.9863
343.77 K, 432.2 kPa, x1 = 0.4666	0.9788
343.77 K, 458 kPa, x1 = 0.2266	0.973
343.77 K, 502.9 kPa, x1 = 0.7567	0.9804
343.77 K, 640.2 kPa, x1 = 0.4666	0.9692
343.77 K, 676.2 kPa, x1 = 0.2266	0.9601
343.77 K, 745.4 kPa, x1 = 0.7567	0.9714
343.77 K, 943.3 kPa, x1 = 0.4666	0.9546
343.77 K, 991.2 kPa, x1 = 0.2266	0.9407
343.77 K, 1099.4 kPa, x1 = 0.7567	0.9577
343.77 K, 1379.1 kPa, x1 = 0.4666	0.9328
343.77 K, 1438.1 kPa, x1 = 0.2266	0.9123
343.77 K, 1609.7 kPa, x1 = 0.7567	0.9372
343.77 K, 1992.6 kPa, x1 = 0.4666	0.9008
343.77 K, 2053.8 kPa, x1 = 0.2266	0.8708
343.77 K, 2331.4 kPa, x1 = 0.7567	0.9073
343.77 K, 2828.1 kPa, x1 = 0.4666	0.8546
343.77 K, 2865.7 kPa, x1 = 0.2266	0.8122
343.77 K, 3321.8 kPa, x1 = 0.7567	0.8641
343.77 K, 3911.6 kPa, x1 = 0.4666	0.7901
343.77 K, 4620.1 kPa, x1 = 0.7567	0.8033
343.78 K, 138.3 kPa, x1 = 0.3594	0.9911
343.78 K, 187.9 kPa, x1 = 0.5908	0.9906
343.78 K, 206.4 kPa, x1 = 0.3594	0.9884
343.78 K, 280.1 kPa, x1 = 0.5908	0.9872
343.78 K, 307.3 kPa, x1 = 0.3594	0.9836
343.78 K, 416.8 kPa, x1 = 0.5908	0.9817
343.78 K, 456.2 kPa, x1 = 0.3594	0.9762
343.78 K, 618.2 kPa, x1 = 0.5908	0.9733
343.78 K, 674.7 kPa, x1 = 0.3594	0.9649
343.78 K, 912.7 kPa, x1 = 0.5908	0.9605
343.78 K, 991.4 kPa, x1 = 0.3594	0.9477
343.78 K, 1338.5 kPa, x1 = 0.5908	0.9415
343.78 K, 1443.8 kPa, x1 = 0.3594	0.9225
343.78 K, 1942.8 kPa, x1 = 0.5908	0.9134
343.78 K, 2073.7 kPa, x1 = 0.3594	0.8857
343.78 K, 2776.8 kPa, x1 = 0.5908	0.8726
343.78 K, 2917.9 kPa, x1 = 0.3594	0.833
343.78 K, 3879.6 kPa, x1 = 0.5908	0.8149
364.35 K, 199.4 kPa, x1 = 0.5606	0.9913
364.35 K, 297.5 kPa, x1 = 0.5606	0.9887
364.35 K, 443 kPa, x1 = 0.5606	0.9839
364.35 K, 657.8 kPa, x1 = 0.5606	0.9766
364.35 K, 972.8 kPa, x1 = 0.5606	0.9653
364.35 K, 1430 kPa, x1 = 0.5606	0.9485
364.35 K, 2083.5 kPa, x1 = 0.5606	0.9237
364.35 K, 2996.2 kPa, x1 = 0.5606	0.8879
364.35 K, 4225.6 kPa, x1 = 0.5606	0.837
364.36 K, 114.2 kPa, x1 = 0.2563	0.9933
364.36 K, 134.6 kPa, x1 = 0.33	0.9913
364.36 K, 170.5 kPa, x1 = 0.2563	0.9913
364.36 K, 197 kPa, x1 = 0.4559	0.9909
364.36 K, 200.9 kPa, x1 = 0.33	0.9892
364.36 K, 250.5 kPa, x1 = 0.7632	0.9908
364.36 K, 254.2 kPa, x1 = 0.2563	0.9878
364.36 K, 294 kPa, x1 = 0.4559	0.9885
364.36 K, 299.7 kPa, x1 = 0.33	0.9864
364.36 K, 373.5 kPa, x1 = 0.7632	0.9875
364.36 K, 378.2 kPa, x1 = 0.2563	0.9825
364.36 K, 437.3 kPa, x1 = 0.4559	0.9828
364.36 K, 445.6 kPa, x1 = 0.33	0.9802
364.36 K, 556.1 kPa, x1 = 0.7632	0.9827
364.36 K, 561.2 kPa, x1 = 0.2563	0.9743
364.36 K, 649 kPa, x1 = 0.4559	0.9748
364.36 K, 660.6 kPa, x1 = 0.33	0.9712
364.36 K, 824.6 kPa, x1 = 0.7632	0.974
364.36 K, 828.8 kPa, x1 = 0.2563	0.9619
364.36 K, 959 kPa, x1 = 0.4559	0.9628
364.36 K, 974.3 kPa, x1 = 0.33	0.9575
364.36 K, 1216 kPa, x1 = 0.2563	0.9432
364.36 K, 1218.7 kPa, x1 = 0.7632	0.9621
364.36 K, 1408 kPa, x1 = 0.4559	0.9448
364.36 K, 1425.9 kPa, x1 = 0.33	0.9367
364.36 K, 1766.2 kPa, x1 = 0.2563	0.9157
364.36 K, 1788.6 kPa, x1 = 0.7632	0.9438
364.36 K, 2047.8 kPa, x1 = 0.4559	0.9185
364.36 K, 2064.5 kPa, x1 = 0.33	0.9064
364.36 K, 2528.1 kPa, x1 = 0.2563	0.8762
364.36 K, 2598.5 kPa, x1 = 0.7632	0.9166
364.36 K, 2935.9 kPa, x1 = 0.4559	0.8802
364.36 K, 2942.6 kPa, x1 = 0.33	0.8636
364.36 K, 3725.1 kPa, x1 = 0.7632	0.8782
364.36 K, 4122.8 kPa, x1 = 0.4559	0.8262
364.36 K, 5229 kPa, x1 = 0.7632	0.824

Reference: the NIST ThermoML archive (doi:10.1007/s10765-006-0033-6)
